Each structure is given as a SMILES string.

This series is described as follows: Solubility in cosmetic solvents (Cétiol LC, Crodamol DA). It counts as physicochemical. As to conditions: solvent Cétinol LC; chromatographed product. An excerpt: Bezüglich der Lipophilität sind die erfindungsgemässen Verbindungen I den eingangs genannten substituierten Triazinen überlegen, indem alle Verbindungen I das im vorliegenden Fall nötige Kriterium, nämlich eine hohe Löslichkeit in kosmetischen Lösungsmitteln wie z.B. Deltyl extra (Isopropylmyristat), Arlanol E (PPG 15-Stearylether), Cétiol LC (Cocoylcapylat/-caprat) oder Crodamol DA (Diisopropyladipat) erfüllen, wie die nachfolgend beispielhaft aufgeführten Verbindungen der Formel I und deren Löslichkeiten in Cetiol LC und/oder in Crodamol DA zeigen (Tabelle II).

`C[Si](C)(C)O[Si](C)(C)CCCCOc1ccc(-c2nc(-c3ccc(OCCCC[Si](C)(C)O[Si](C)(C)C)cc3O)nc(-c3ccc(OCCCC[Si](C)(C)O[Si](C)(C)C)cc3O)n2)c(O)c1` [Beispiel 10, 5,5',5''-Tris-[4-(1,1,1,3,3-pentamethyl-disiloxan-oxy)-butyl-1-oxy]-2,2',2''-(1.3.5)-triazin-2,4,6-triyl-tris-phenol]: the “Löslichkeit in Cétinol LC” value is recorded as 8%.

Turning to `C[Si](C)(C)O[Si](C)(C)CCCCCOc1ccc(-c2nc(-c3ccc(OCCCCC[Si](C)(C)O[Si](C)(C)C)cc3O)nc(-c3ccc(OCCCCC[Si](C)(C)O[Si](C)(C)C)cc3O)n2)c(O)c1` [Beispiel 9-1], the “Löslichkeit in Cétinol LC” value is listed as > 35%.

The values above are taken from EP0863145A2, “Sunscreen compositions” (F. HOFFMANN-LA ROCHE AG, priority 1997, dated 1998).
